Measurements: patent publication US20260297042A1, “BIARYLAMIDE DERIVATIVES AND THEIR USE AS PKMYT1 INHIBITORS” (CANCER RESEARCH TECHNOLOGY LIMITED, priority 2023, published 2026)
Structures can show the parent of a compound that is named as a salt.

Assays:
[1] = target: T1, Human PKMYT1 (Homo sapiens, UniProt Q99640); assay: PKMYT1 biochemical ADP-Glo enzymatic assay; conditions: ADP-Glo
T1 construct: Human PKMYT1 75-362 was cloned as a TEV cleavable 6xHis fusion; 6xHis (TEV cleavable) (cleaved yes); made in house; host or cells: bacterial cells
T1 sequence (Q99640 75-362): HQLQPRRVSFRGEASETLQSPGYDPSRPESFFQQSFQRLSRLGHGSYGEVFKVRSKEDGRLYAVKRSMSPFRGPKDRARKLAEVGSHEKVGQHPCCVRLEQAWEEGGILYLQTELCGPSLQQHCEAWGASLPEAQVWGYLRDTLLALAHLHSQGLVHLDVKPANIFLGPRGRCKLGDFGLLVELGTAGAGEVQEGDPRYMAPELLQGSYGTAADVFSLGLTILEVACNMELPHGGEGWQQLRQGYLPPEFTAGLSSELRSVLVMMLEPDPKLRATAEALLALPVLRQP
In short: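 Compounds were titrated over 10 points (3-fold steps), then 15 nM purified PKMYT1 kinase domain (aa 75-362) and 500 µM ATP were added in pH 7.5 HEPES buffer. After 60 min at 26 °C, remaining ATP was depleted and ADP converted to luminescence for IC50 fitting.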

[2] = target: T2, WEE1 (Homo sapiens, UniProt P30291); assay: Selectivity versus WEE1 assay (ADP-Glo enzymatic assay); type: biochemical; conditions: for IC50: ADP-Glo; for PKMYT1 vs. WEE1 selectivity: fold difference in selectivity for PKMYT1 over WEE1
T2 construct: purchased Thermo Fisher PR7373A
In short: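 Compounds were pre-dispensed, enzyme (15 nM final) was added in pH 7.5 HEPES buffer, and ATP ([…]) then started a 60 min incubation at 26° C. Afterwards ADP-Glo reagents were added in turn and luminescence was measured to derive IC50 values.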

[3] = 15 nM PKMYT1 kinase domain, 500 µM ATP, 60 minutes at 26° C., banded
[4] = 15 nM WEE1, 60 minutes at 26° C., banded
[5] = banded, ">N" = at least in this band but could be higher
[6] = PKMYT1 kinase domain 15 nM, banded values

T2 sequence (P30291 whole entry): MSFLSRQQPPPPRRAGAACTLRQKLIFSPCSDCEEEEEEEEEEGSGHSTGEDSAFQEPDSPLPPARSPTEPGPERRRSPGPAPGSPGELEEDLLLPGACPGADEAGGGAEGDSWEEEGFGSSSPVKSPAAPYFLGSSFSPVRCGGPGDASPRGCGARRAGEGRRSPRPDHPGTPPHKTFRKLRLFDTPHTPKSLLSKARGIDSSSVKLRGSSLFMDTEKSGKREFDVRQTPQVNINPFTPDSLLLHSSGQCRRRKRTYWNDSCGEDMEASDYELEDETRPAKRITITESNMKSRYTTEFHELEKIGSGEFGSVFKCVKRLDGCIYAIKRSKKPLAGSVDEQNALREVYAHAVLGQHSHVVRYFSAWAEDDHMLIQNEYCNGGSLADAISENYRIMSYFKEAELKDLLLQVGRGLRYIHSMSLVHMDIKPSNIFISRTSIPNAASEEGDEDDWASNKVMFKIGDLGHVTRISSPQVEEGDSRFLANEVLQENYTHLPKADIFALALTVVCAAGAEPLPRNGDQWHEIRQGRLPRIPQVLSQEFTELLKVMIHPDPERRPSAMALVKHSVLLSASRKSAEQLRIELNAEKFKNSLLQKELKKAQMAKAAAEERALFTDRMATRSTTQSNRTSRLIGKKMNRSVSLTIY

## Cc1ccc(O)c(C)c1NC(=O)c1cnc(Nc2cc(C)n(CC(=O)O)n2)s1 [BAA-124, 2-[3-[[5-[(3-hydroxy-2,6-dimethyl-phenyl)carbamoyl]thiazol-2-yl]amino]-5-methyl-pyrazol-1-yl]acetic acid]
[1]; [3]
  IC50: < 50 nM
[2]; [4]
  IC50: > 11000 nM
[2]; [5]
  PKMYT1 vs. WEE1 selectivity: X (100-<1000 fold)

## Cc1ccc(O)c(C)c1NC(=O)c1cnc(Nc2cn(C)nc2C)s1 [BAA-521, 2-((1,3-dimethyl-1H-pyrazol-4-yl)amino)-N-(3-hydroxy-2,6-dimethylphenyl)thiazole-5-carboxamide]
[1]; [6]
  IC50: 50 to 1000 nM
[2]; WEE1 15 nM, banded values
  IC50: > 11000 nM
[2]; banded
  PKMYT1 vs. WEE1 selectivity: X (100-<1000 fold)

## Cc1ccc(O)c(C)c1NC(=O)c1cnc(Nc2cccc3ncsc23)s1 [BAA-485, 2-(benzo[d]thiazol-7-ylamino)-N-(3-hydroxy-2,6-dimethylphenyl)thiazole-5-carboxamide]
[1]; [6]
  IC50: < 50 nM
[2]; WEE1 15 nM, banded values
  IC50: > 11000 nM
[2]; banded
  PKMYT1 vs. WEE1 selectivity: X (100-<1000 fold)

## CCCCn1ccc(Nc2ncc(C(=O)Nc3c(C)ccc(O)c3C)s2)n1 [BAA-012, 2-[(1-butylpyrazol-3-yl)amino]-N-(3-hydroxy-2,6-dimethyl-phenyl)thiazole-5-carboxamide]
[1]; [3]
  IC50: 50 to 1000 nM
[2]; [4]
  IC50: 1000 to 11000 nM
[2]; [5]
  PKMYT1 vs. WEE1 selectivity: W (10-<100 fold)

## Cc1ccc(O)c(C)c1NC(=O)c1cnc(Nc2cnn(C)c2C)s1 [BAA-520, 2-((1,5-dimethyl-1H-pyrazol-4-yl)amino)-N-(3-hydroxy-2,6-dimethylphenyl)thiazole-5-carboxamide]
[1]; [6]
  IC50: 50 to 1000 nM
[2]; WEE1 15 nM, banded values
  IC50: > 11000 nM
[2]; banded
  PKMYT1 vs. WEE1 selectivity: X (100-<1000 fold)

## Cc1ccc(O)c(C)c1NC(=O)c1cnc(Nc2ccn(CC(=O)N3CCC[C@@H](O)C3)n2)s1 [BAA-161]
[1]; [3]
  IC50: < 50 nM
[2]; [4]
  IC50: > 11000 nM
[2]; [5]
  PKMYT1 vs. WEE1 selectivity: Y (1000-5000 fold)

## CCC(=O)NCCCNc1ncc(C(=O)Nc2c(C)ccc(O)c2C)s1 [BAA-076, N-(3-hydroxy-2,6-dimethyl-phenyl)-2-[3-(propanoylamino)propylamino]thiazole-5-carboxamide]
[1]; [3]
  IC50: 1000 to 11000 nM
[2]; [4]
  IC50: > 11000 nM
[2]; [5]
  PKMYT1 vs. WEE1 selectivity: >W (10-<100 fold)

## Cc1ccc(O)c(C)c1NC(=O)c1cnc(Nc2ccn(CC(=O)N3C[C@@H]4C[C@H]3CN4C(=O)OC(C)(C)C)n2)s1 [BAA-143]
[1]; [3]
  IC50: < 50 nM
[2]; [4]
  IC50: > 11000 nM
[2]; [5]
  PKMYT1 vs. WEE1 selectivity: Y (1000-5000 fold)

## COc1ccc(CNc2ncc(C(=O)Nc3c(C)ccc(O)c3C)s2)cc1 [BAA-352, N-(3-hydroxy-2,6-dimethylphenyl)-2-((4-methoxybenzyl)amino)thiazole-5-carboxamide]
[1]; [3]
  IC50: 50 to 1000 nM
[2]; [4]
  IC50: > 11000 nM
[2]; [5]
  PKMYT1 vs. WEE1 selectivity: X (100-<1000 fold)

## Cc1ccc(O)c(C)c1NC(=O)c1cnc(Nc2cccc(S(=O)(=O)N3CC(F)(F)C(F)(F)C3)c2)s1 [BAA-286, N-(3-hydroxy-2,6-dimethylphenyl)-2-((3-((3,3,4,4-tetrafluoropyrrolidin-1-yl)sulfonyl)phenyl)amino)thiazole-5-carboxamide]
[1]; [3]
  IC50: 1000 to 11000 nM
[2]; [4]
  IC50: > 11000 nM
[2]; [5]
  PKMYT1 vs. WEE1 selectivity: W (10-<100 fold)

## CCN(CC)C(=O)Cn1nc(Nc2ncc(C(=O)Nc3c(C)ccc(O)c3C)s2)cc1C [BAA-204, 2-[[1-[2-(diethylamino)-2-oxo-ethyl]-5-methyl-pyrazol-3-yl]amino]-N-(3-hydroxy-2,6-dimethyl-phenyl)thiazole-5-carboxamide]
[1]; [3]
  IC50: < 50 nM
[2]; [4]
  IC50: > 11000 nM
[2]; [5]
  PKMYT1 vs. WEE1 selectivity: Z (>5000 fold)

## Cc1ccc(O)c(C)c1NC(=O)c1cnc(Nc2cc(C(=O)N3CCCC3)n(C)n2)s1 [BAA-544, N-(3-hydroxy-2,6-dimethylphenyl)-2-((1-methyl-5-(pyrrolidine-1-carbonyl)-1H-pyrazol-3-yl)amino)thiazole-5-carboxamide]
[1]; [6]
  IC50: 50 to 1000 nM
[2]; WEE1 15 nM, banded values
  IC50: 1000 to 11000 nM
[2]; banded
  PKMYT1 vs. WEE1 selectivity: W (10-<100 fold)

## Cc1ccc(O)c(C)c1NC(=O)c1cnc(Nc2ccn(CC(=O)N3CCN(S(C)(=O)=O)CC3)n2)s1 [BAA-142]
[1]; [3]
  IC50: < 50 nM
[2]; [4]
  IC50: > 11000 nM
[2]; [5]
  PKMYT1 vs. WEE1 selectivity: X (100-<1000 fold)

## Cc1ccc(O)c(C)c1NC(=O)c1cnc(NCc2ccn(C)n2)s1 [BAA-348, N-(3-hydroxy-2,6-dimethylphenyl)-2-(((1-methyl-1H-pyrazol-3-yl)methyl)amino) thiazole-5-carboxamide]
[1]; [3]
  IC50: 50 to 1000 nM
[2]; [4]
  IC50: > 11000 nM
[2]; [5]
  PKMYT1 vs. WEE1 selectivity: X (100-<1000 fold)

## Cc1cn(CC(=O)N2CCC2)nc1Nc1ncc(C(=O)Nc2c(C)ccc(O)c2C)s1 [BAA-374, 2-((1-(2-(azetidin-1-yl)-2-oxoethyl)-4-methyl-1H-pyrazol-3-yl)amino)-N-(3-hydroxy-2,6-dimethylphenyl)thiazole-5-carboxamide]
[1]; [3]
  IC50: < 50 nM
[2]; [4]
  IC50: 1000 to 11000 nM
[2]; [5]
  PKMYT1 vs. WEE1 selectivity: X (100-<1000 fold)

## Cc1ccc(O)c(C)c1NC(=O)c1cnc(NCC2CCNCC2)s1 [BAA-079, N-(3-hydroxy-2,6-dimethyl-phenyl)-2-(4-piperidylmethylamino)thiazole-5-carboxamide hydrochloride]
[1]; [3]
  IC50: 1000 to 11000 nM
[2]; [4]
  IC50: > 11000 nM
[2]; [5]
  PKMYT1 vs. WEE1 selectivity: >W (10-<100 fold)

## Cc1ccc(O)c(C)c1NC(=O)c1cnc(Nc2ccn(CC(=O)N3CCC(O)CC3)n2)s1 [BAA-132, N-(3-Hydroxy-2,6-dimethyl-phenyl)-2-[[1-[2-(4-hydroxy-1-piperidyl)-2-oxo-ethyl]pyrazol-3-yl]amino]thiazole-5-carboxamide]
[1]; [3]
  IC50: < 50 nM
[2]; [4]
  IC50: > 11000 nM
[2]; [5]
  PKMYT1 vs. WEE1 selectivity: Y (1000-5000 fold)

## COc1ccc(CC(=O)N2CCC(CNc3ncc(C(=O)Nc4c(C)ccc(O)c4C)s3)CC2)cc1 [BAA-213, N-(3-Hydroxy-2.6-dimethyl-phenyl)-2-[[1-[2-(4-methoxyphenyl)acetyl]-4-piperidyl]methylamino]thiazole-5-carboxamide]
[1]; [3]
  IC50: 50 to 1000 nM
[2]; [4]
  IC50: > 11000 nM
[2]; [5]
  PKMYT1 vs. WEE1 selectivity: >X (100-<1000 fold)

## Cc1ccc(O)c(C)c1NC(=O)c1cnc(Nc2c3ccncc3nn2C)s1 [BAA-244, N-(3-hydroxy-2,6-dimethylphenyl)-2-((2-methyl-2H-pyrazolo[3,4-c]pyridin-3-yl)amino)thiazole-5-carboxamide]
[1]; [3]
  IC50: < 50 nM
[2]; [4]
  IC50: 1000 to 11000 nM
[2]; [5]
  PKMYT1 vs. WEE1 selectivity: X (100-<1000 fold)

## Cc1cnc(Nc2ncc(C(=O)Nc3c(C)ccc(O)c3C)s2)s1 [BAA-262, N-(3-hydroxy-2,6-dimethylphenyl)-2-((5-methylthiazol-2-yl)amino)thiazole-5-carboxamide]
[1]; [3]
  IC50: < 50 nM
[2]; [4]
  IC50: > 11000 nM
[2]; [5]
  PKMYT1 vs. WEE1 selectivity: X (100-<1000 fold)

## Cc1ccc(O)c(C)c1NC(=O)c1cnc(Nc2cccc(C3=NCCO3)c2)s1 [BAA-461, 2-((3-(4,5-dihydrooxazol-2-yl)phenyl)amino)-N-(3-hydroxy-2,6-dimethylphenyl)thiazole-5-carboxamide]
[1]; [6]
  IC50: < 50 nM
[2]; WEE1 15 nM, banded values
  IC50: 1000 to 11000 nM
[2]; banded
  PKMYT1 vs. WEE1 selectivity: X (100-<1000 fold)

## Cc1ccc(O)c(C)c1NC(=O)c1cnc(Nc2cc(C)n(CC(=O)N3CCN(C)CC3)n2)s1 [BAA-201]
[1]; [3]
  IC50: < 50 nM
[2]; [4]
  IC50: > 11000 nM
[2]; [5]
  PKMYT1 vs. WEE1 selectivity: X (100-<1000 fold)

## Cc1ccc(O)c(C)c1NC(=O)c1cnc(NCCCN2CCN(C)CC2)s1 [BAA-218, N-(3-Hydroxy-2,6-dimethyl-phenyl)-2-[3-(4-methylpiperazin-1-yl)propylamino]thiazole-5-carboxamide]
[1]; [3]
  IC50: 1000 to 11000 nM
[2]; [4]
  IC50: > 11000 nM
[2]; [5]
  PKMYT1 vs. WEE1 selectivity: W (10-<100 fold)

## Cc1ccc(O)c(C)c1NC(=O)c1cnc(Nc2cccc3ccoc23)s1 [BAA-531, 2-(benzofuran-7-ylamino)-N-(3-hydroxy-2,6-dimethylphenyl)thiazole-5-carboxamide]
[1]; [6]
  IC50: 50 to 1000 nM
[2]; WEE1 15 nM, banded values
  IC50: > 11000 nM
[2]; banded
  PKMYT1 vs. WEE1 selectivity: Y (1000-5000 fold)

## Cc1ccc(O)c(C)c1NC(=O)c1cnc(Nc2ccc(C(F)(F)F)cn2)s1 [BAA-280, N-(3-hydroxy-2,6-dimethylphenyl)-2-((5-(trifluoromethyl)pyridin-2-yl)amino)thiazole-5-carboxamide]
[1]; [3]
  IC50: 50 to 1000 nM
[2]; [4]
  IC50: > 11000 nM
[2]; [5]
  PKMYT1 vs. WEE1 selectivity: Y (1000-5000 fold)

## Cc1ccc(O)c(C)c1NC(=O)c1cnc(Nc2ncc[nH]2)s1 [BAA-030, N-(3-hydroxy-2,6-dimethyl-phenyl)-2-(1H-imidazol-2-ylamino)thiazole-5-carboxamide]
[1]; [3]
  IC50: 1000 to 11000 nM
[2]; [4]
  IC50: > 11000 nM
[2]; [5]
  PKMYT1 vs. WEE1 selectivity: >W (10-<100 fold)

## Cc1ccc(C(=O)Nc2ccc(Nc3ncc(C(=O)Nc4c(C)ccc(O)c4C)s3)nc2)c(C)c1 [BAA-297, 2-((5-(2,4-dimethylbenzamido)pyridin-2-yl)amino)-N-(3-hydroxy-2,6-dimethylphenyl)thiazole-5-carboxamide]
[1]; [3]
  IC50: 50 to 1000 nM
[2]; [4]
  IC50: > 11000 nM
[2]; [5]
  PKMYT1 vs. WEE1 selectivity: Y (1000-5000 fold)
